From patent US10479803B2, “Bicyclic heteroarylaminoalkyl phenyl derivatives as PI3K inhibitors” (Incyte Corporation, priority 2014, dated 2019)

How the values were obtained:
human JAK2 = human JAK2 (Homo sapiens (Human), UniProt O60674); assay: In vitro JAK kinase assay (Example J), JAK2; type: biochemical; conditions: ratio of IC50s, Assay J at 1 mM ATP
human JAK1 = human JAK1 (Homo sapiens, UniProt P23458); assay: In vitro JAK kinase assay (Example J), JAK1; type: biochemical; conditions: Assay J at 1 mM ATP

Sequence of human JAK2 (O60674 828-1132): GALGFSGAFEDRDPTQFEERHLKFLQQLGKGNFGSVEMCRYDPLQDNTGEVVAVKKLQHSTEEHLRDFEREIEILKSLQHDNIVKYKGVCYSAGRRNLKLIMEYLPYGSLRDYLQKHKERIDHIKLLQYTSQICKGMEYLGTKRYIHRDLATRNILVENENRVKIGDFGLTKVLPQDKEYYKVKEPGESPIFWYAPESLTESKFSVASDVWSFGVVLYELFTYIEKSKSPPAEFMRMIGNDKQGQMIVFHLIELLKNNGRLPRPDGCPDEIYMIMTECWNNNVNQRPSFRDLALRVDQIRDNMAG

IC50 (human JAK1) [nM]	Structure (SMILES)	JAK2/JAK1 (human JAK2)
	C[C@@H](O)c1nc2cnc3ccsc3c2n1[C@H]1CC[C@H](CC#N)OC1 [#1, ((2R,5S)-5-{2-[(1R)-1-Hydroxyethyl]-1H-imidazo[4,5-d]thieno[3,2-b]pyridin-1-yl}tetrahydro-2H-pyran-2-yl)acetonitrile]	>10
< 10	N#CCC(CN1CCN(C(=O)c2ccc(C#N)cc2F)CC1)n1ccc(-c2ncnc3[nH]ccc23)c1 (stereo not drawn) [Example 6, 4-[(4-{3-cyano-2-[3-(7H-pyrrolo[2,3-d]pyrimidin-4-yl)-1H-pyrrol-1-yl]propyl}piperazin-1-yl)carbonyl]-3-fluorobenzonitrile]	>10
